In ChEMBL document CHEMBL5727817, “3′ end caps, 5′ end caps and combinations thereof for therapeutic RNA” (2020):

Test: thermodynamic (Steady State Affinity) binding analysis: A subset of compounds was further characterized to determine dissociation constants using thermodynamic (Steady State Affinity) binding analysis.

Row | SMILES | Kd
1 | Nc1nc([O-])c2c(n1)n([C@H]1O[C@@H](COP(=O)(O)O)[C@H](O)[C@@H]1O)c[n+]2Cc1ccccc1CS(=O)(=O)c1ccccc1 | 30 nM
2 | Nc1nc([O-])c2c(n1)n([C@H]1O[C@@H](COP(=O)(O)O)[C@H](O)[C@@H]1O)c[n+]2Cc1ccc(-c2ccccc2F)cc1 | 410 nM
3 | CO[C@H]1[C@@H](O)[C@H](COP(=O)(O)O)O[C@@H]1n1c[n+](CCOc2ccc(Cl)cc2)c2c([O-])nc(N)nc21 | 160 nM
4 | Nc1nc([O-])c2c(n1)n([C@H]1O[C@@H](COP(=O)(O)O)[C@H](O)[C@@H]1O)c[n+]2Cc1cccc(Oc2ccccc2)c1 | 220 nM

Continued by falling Kd, values first:

Row | Kd | SMILES
5 | 580 nM | Nc1nc([O-])c2c(n1)n([C@H]1O[C@@H](COP(=O)(O)O)[C@H](O)[C@@H]1O)c[n+]2Cc1cccc(OCc2ccccc2)c1
6 | 300 nM | Nc1nc([O-])c2c(n1)n([C@H]1O[C@@H](COP(=O)(O)O)[C@H](O)[C@@H]1O)c[n+]2Cc1ccc(-c2ccccc2)cc1
7 | 110 nM | Nc1nc([O-])c2c(n1)n([C@H]1O[C@@H](COP(=O)(O)O)[C@H](O)[C@@H]1O)c[n+]2Cc1ccc(-c2ccccc2)c(Cl)c1
